Measurements published in patent US12532889B2, “Herbicidal compositions comprising glufosinate” (BASF SE, priority 2023, dated 2026).
Several values for one entry are separate records, joined by “and”; a condition that tells them apart may be missing. Equal entries are not always repeated.

Assays:
Assay in all cases: Post-emergence application in field trials (Example A)
Format in all cases: in vivo
[1] = test system: LOLMU (Lolium multiflorum); conditions: growth stage 22-25, height 20-25 cm
Method: (§1) In the examples below, using the method of S. R. Colby (1967) “Calculating synergistic and antagonistic responses of herbicide combinations”, Weeds 15, p. 22ff., the value E, which is expected if the activity of the individual active compounds is only additive, was calculated:
(§2) [formula] • where • X=percent activity using active herbicide A at an application rate a; • Y=percent activity using active herbicide B (e.g. glufosinate) at an application rate b; • E=expected activity (in %) by A+B at application rates a+b.
(§3) If the value found experimentally is higher than the value E calculated according to Colby, a synergistic effect is present.
(§4) On field test sites, natural weed infestation or seeded weeds were treated post-emergence of the weeds.
(§5) In the field trials, the weeds were treated as indicated below.
(§6) In the following experiments, the herbicidal activity for the individual herbicidal compositions (solo and mixture applications) was assessed at the indicated days after treatment (DAT). The assessments for the damage on undesired weeds caused by the composition was carried out using a scale from 0 to 100%, compared to the untreated control plants. Here, 0 means no damage and 100 means complete destruction of the plants.

GLXMA (Glycine max) = conditions: 42 DAT, growth stage 13, height 5-10 cm
Method: as §1, §2, §3, §4, §5, §6

[2] = test system: HORVW (Hordeum vulgare (winter barley)); conditions: growth stage 23-29, height 20-25 cm
Method: as §1, §2, §3, §4, §5, §6

[3] = test system: DIGSA (Digitaria sanguinalis); conditions: height 10-15 cm
Method: as §1, §2, §3, §4, §5, §6

ZEAMX (Zea mays) = conditions: C-4 12.5 g ai/ha, growth stage 15-16
Method: as §1, §2, §3, §4, §5, §6

[4] = test system: SETVE (Setaria verticillata); conditions: 42 DAT; C-4 12.5 g ai/ha; growth stage 21-23; height 8-16 cm
Method: as §1, §2, §3, §4, §5, §6

[5] = test system: ECHCG (Echinocloa crus-galli); conditions: growth stage 23-30, height 15-20 cm
Method: as §1, §2, §3, §4, §5, §6

## C#CCN1C(=O)C(F)(F)Oc2cc(F)c(-n3c(=O)n(C)c(=S)n(C)c3=O)cc21 [C-4, trifludimoxazin]
[1]; 7 DAT, C-4 12.5 g ai/ha
  % Herbicidal activity: 40%
[1]; 28 DAT, C-4 12.5 g ai/ha
  % Herbicidal activity: 30%
GLXMA (Glycine max); C-4 12.5 g ai/ha
  % Herbicidal activity: 60%
[2]; 7 DAT, C-4 12.5 g ai/ha
  % Herbicidal activity: 40% and 30%
[2]; 21 DAT, C-4 12.5 g ai/ha
  % Herbicidal activity: 30%
[3]; 7 DAT, C-4 12.5 g ai/ha, growth stage 22
  % Herbicidal activity: 40%
[3]; 21 DAT, C-4 12.5 g ai/ha, growth stage 22
  % Herbicidal activity: 40%
[3]; 41 DAT, C-4 12.5 g ai/ha, growth stage 22
  % Herbicidal activity: 25%
[3]; 42 DAT, C-4 12.5 g ai/ha, growth stage 22
  % Herbicidal activity: 25%
ZEAMX (Zea mays); 21 DAT, height 27-33 cm
  % Herbicidal activity: 30%
ZEAMX (Zea mays); 28 DAT, height 50-60 cm
  % Herbicidal activity: 30%
ZEAMX (Zea mays); 42 DAT, height 27-33 cm
  % Herbicidal activity: 25% and 20%
[4]
  % Herbicidal activity: 25%
[5]; 7 DAT, C-4 12.5 g ai/ha
  % Herbicidal activity: 40%
[5]; 21 DAT, C-4 12.5 g ai/ha
  % Herbicidal activity: 20%
[5]; 28 DAT, C-4 12.5 g ai/ha
  % Herbicidal activity: 40% and 20%

## CC(C)N(C)S(=O)(=O)NC(=O)c1cc(-n2c(=O)cc(C(F)(F)F)n(C)c2=O)c(F)cc1Cl [C-1, saflufenacil]
[1]; 7 DAT, C-1 12.5 g ai/ha
  % Herbicidal activity: 20%
[1]; 28 DAT, C-1 12.5 g ai/ha
  % Herbicidal activity: 20%
GLXMA (Glycine max); C-1 12.5 g ai/ha
  % Herbicidal activity: 60%
[2]; 7 DAT, C-1 12.5 g ai/ha
  % Herbicidal activity: 20%
[3]; 20 DAT, C-1 12.5 g ai/ha, growth stage 21-22
  % Herbicidal activity: 20%
[5]; 7 DAT, C-1 12.5 g ai/ha
  % Herbicidal activity: 20%
[5]; 28 DAT, C-1 12.5 g ai/ha
  % Herbicidal activity: 20%
